{"source": "patent US12336986B2", "about": "“Treatment and prevention of ocular neurodegenerative disorder” (The Jackson Laboratory, priority 2015, dated 2025)", "key": {"SNAP-25": {"tested_on": "SNAP-25", "test": "Synapse loss (SNAP-25 staining) in D2 retinas", "assay_type": "in vivo, mouse", "settings": "D2 mice, NAM 550 mg/kg/day", "procedure": "(§1) For immunofluorescence staining, mice were euthanized by cervical dislocation, their eyes enucleated and placed in 4% PFA ON. Retinas were dissected and flat-mounted onto slides, permeabilized with 0.1% Triton-X for 15 mins, blocked with 2% BSA in PBS and stained ON at RT in primary antibody (see below for list of antibodies).\n(§2) After primary antibody incubation, retinas were washed 5 times in PBS, stained for 4 hrs at RT with secondary antibody. Slides were then washed a further 5 times with PBS, stained with DAPI for 15 mins, mounted with fluoromount, coverslipped and sealed with nail-polish.\n(§3) For retinal sections, eyes were cryoprotected in 30% sucrose ON, frozen in OCT and cryosectioned at 18 μm. Slides were warmed to room temperature and the procedure above was followed. Retinas were imaged on a Zeiss AxioObserver for low resolution counts. Retinal sections were imaged on a Leica SP8 far higher resolution images."}, "DBA/2J (D2) mice [1]": {"tested_on": "DBA/2J (D2) mice", "test": "Clinical phenotyping: intraocular pressure (IOP) and iris disease in D2 mice", "assay_type": "in vivo, mouse", "procedure": "IOP elevation in D2 mice is subsequent to a pigment dispersing iris disease. In all experiments, the progression of the iris disease and intraocular pressure in mutant or drug-treated mice was compared to control D2 mice as previously described (John et al., Invest Ophthalmol Vis Sci 39, 951-962, 1998). In each experiment, iris disease and intraocular pressure were assessed.\nIris disease was assessed at two-month intervals starting at 6 months of age until experiment completion.\nIntraocular pressure was measured at 45-day intervals beginning at 8.5-9 month until experiment completion."}, "D2 retinas [2]": {"tested_on": "D2 retinas", "test": "Lipid droplet formation in inner retina (Oil Red O staining)", "assay_type": "in vivo, mouse", "settings": "D2 mice, 12-month, NAM 550 mg/kg/day", "procedure": "For Oil Red O staining, slides were warmed to room temperature, washed quickly in 60% isopropanol, incubated at RT in Oil Red O and Haematoxylin for 15 mins, washed in 60% isopropanol again, mounted and coverslipped. Oil Red O stained retinal sections were imaged using a Nikon Eclipse […]."}, "[3]": {"tested_on": "dendritic mitochondria of D2 RGCs", "test": "Electron microscopy of RGC dendritic mitochondria (cristae)", "assay_type": "in vivo, mouse", "settings": "D2 mice, NAM 550 mg/kg/day", "procedure": "Mice were euthanized, eyes enucleated, and then fixed ON in Smith-Ruda (0.8% PFA and 1.2% gluteraldehyde in 0.1 M phosphate buffer). The cornea and lens were dissected off and the remaining posterior eye-cup (containing the retina and ONH) were post-fixed in 2% aqueous osmium tetroxide and dehydrated in ethyl alcohol. Samples were then infiltrated and flat-mounted in Embed 812/Araldite resin (Electron Microscopy Sciences) to allow en face sections. Blocks were polymerized at 60° C. for 48 hrs and 90 nm microtome sections were cut (Leica UC6, Leica) onto 300 mesh copper grids. Grids were stained with 1% aqueous uranyl acetate/Reynold's lead citrate and were viewed on a JEOL JEM 1230 TEM. Images were collected on an AMT 2K camera."}, "DBA/2J (D2) mice [4]": {"tested_on": "DBA/2J (D2) mice", "test": "Optic nerve assessment (PPD staining) and determination of glaucomatous damage in D2 mice", "assay_type": "in vivo, mouse", "settings": "for risk factor of developing glaucoma (nerves with severe glaucoma): D2 mice at 12 months, control 0.6"}, "[5]": {"tested_on": "ganglion cell layer cells (GCL cells)", "test": "Whole retina explant culture (axotomy culture model), DAPI nuclei", "assay_type": "cell-based, mouse", "from_the_text": "Mice were euthanized, eyes enucleated and placed immediately into ice-cold HBSS. Retinas were dissected from the eyes in HBSS on ice, flat-mounted with the ganglion cell layer up on a cell culture insert (Millipore), and submerged in tissue culture media containing Neurobasal-A, 1% penicillin-streptomycin (10000 U/mL), 1% glutamine (100×), 1% N-2 (100×) and 1% B-27 (50×) (all ThermoFisher Scientific).\nFor drug treated retinas tissue culture media was made as above and supplemented with one of the following compounds (all Sigma unless otherwise): β-NAD, NAM (PanReac AppliChem), β-NMN. Retinas were incubated in 6-well plates at 37° C. and 4% CO2 for 5 days before being fixed in 4% PFA and stained with DAPI. (For untreated “Day 0” controls, retinas were dissected and placed straight into 4% PFA.) Retinas were imaged on a Zeiss AxioObserver."}, "RGCs": {"tested_on": "RGCs", "settings": "U.S. Pat. No. 7,776,326; injected intravitreally; cited from earlier work"}, "[6]": {"settings": "cited from earlier work"}, "dorsal root ganglion": {"tested_on": "dorsal root ganglion", "settings": "U.S. Pat. No. 7,776,326; cited from earlier work"}, "PARP": {"tested_on": "PARP", "test": "PARP activation (pan-PARP immunostaining) in D2 retinas", "assay_type": "in vivo, mouse", "settings": "NAM 550 mg/kg/day", "procedure": "as §1, §2, §3"}, "γH2AX": {"tested_on": "γH2AX", "test": "DNA damage (γH2AX staining) in D2 retinas", "assay_type": "in vivo, mouse", "settings": "D2 mice, early glaucoma, NAM 550 mg/kg/day", "procedure": "as §1, §2, §3"}, "DBA/2J (D2) mice [7]": {"tested_on": "DBA/2J (D2) mice", "test": "Pattern electroretinography (PERG) in D2 mice", "assay_type": "in vivo, mouse", "settings": "for visual function, PERG amplitude: D2 mice", "procedure": "PERG was recorded subcutaneously from the snout as previously reported. Briefly: patterned stimuli (gratings of 0.05 cycles/degree, 100% contrast) generated on LED panels were presented at each eye separately with slight different frequencies around 1 Hz. Waveforms were retrieved using an asynchronous averaging method (Chou et al., Invest Ophthalmol Vis Sci 55, 2469-2475, 2014).\nMice were anaesthetized using ketamine/xylazine (Savinova et al., BMC Genet 2, 12, 2001) and body temperature maintained at 37° C. on a feedback-controlled heated stage monitored by rectal thermometer."}, "[8]": {"tested_on": "mouse model for EAE, ALS, RRMS", "settings": "US 2006-0211744 A1, RRMS mouse models; cited from earlier work"}, "HIF-1α": {"tested_on": "HIF-1α", "test": "HIF-1α induction (immunostaining, RNA-seq) in D2 retinas", "assay_type": "in vivo, mouse", "settings": "D2 mice, early glaucoma, NAM 550 mg/kg/day", "procedure": "as §1, §2, §3"}, "D2 retinas [9]": {"tested_on": "D2 retinas", "test": "Retinal NFL and IPL thinning (Nissl staining) in D2 mice", "assay_type": "in vivo, mouse", "settings": "NAM or pyruvate in drinking water", "procedure": "For Nissl staining, frozen sections were warmed to room temperature, placed in 1:1 alcohol:chloroform ON, and rehydrated through serial alcohol gradient. Slides were washed once in distilled water and stained for 15 mins in 0.1% cresyl violet in distilled water before being differentiated in 95% alcohol, dehydrated in 100% alcohol and cleared in xylene. Slides were prepared as above. Nissl stained retinal sections were imaged using a Nikon Eclipse E200."}, "[10]": {"settings": "axotomized retinas in culture, 5 days"}}, "note": "Entries after “also recorded” stand apart in the source; their conditions may differ.", "data": [{"compound": "NC(=O)c1cccnc1", "note": "[NAM, nicotinamide]", "values": [{"measurement": "synapse loss in early glaucoma (SNAP-25 staining)", "setting": "SNAP-25", "result": "protected against early synapse loss; also recorded: prevents synapse loss"}, {"measurement": "IOP", "setting": "DBA/2J (D2) mice [1]; NAM 550 mg/kg/d", "result": "did not alter IOP; also recorded: IOP was not altered"}, {"measurement": "degree of IOP elevation", "setting": "DBA/2J (D2) mice [1]; NAM 2000 mg/kg/d", "result": "lessens the degree of IOP elevation"}, {"measurement": "lipid droplet formation in the inner retina", "setting": "D2 retinas [2]", "result": "prevented; also recorded: prevents lipid droplet formation"}, {"measurement": "mitochondrial dysfunction / abnormal cristae in dendritic mitochondria (EM)", "setting": "[3]", "result": "sufficient to inhibit the formation of dysfunctional mitochondria; also recorded: prevents early mitochondrial dysfunction"}, {"measurement": "risk factor of developing glaucoma (nerves with severe glaucoma)", "setting": "DBA/2J (D2) mice [4]; high dose NAM 2,000 mg/kg/day", "result": 0.06}, {"measurement": "risk factor of developing glaucoma (nerves with severe glaucoma)", "setting": "DBA/2J (D2) mice [4]; low dose NAM 550 mg/kg/day", "result": 0.36}, {"measurement": "protection against glaucoma compared to Wld^S alone", "setting": "DBA/2J (D2) mice [4]; D2 mice bearing the Wld^S mutation, NAM 550 mg/kg/day", "result": "better protects against glaucoma than Wld^S alone; also recorded: significantly better than Wld^S alone"}, {"measurement": "protection from glaucomatous damage (no glaucoma)", "setting": "DBA/2J (D2) mice [4]; D2 mice carrying the Wld^S mutation, NAM 550 mg/kg/day from 6 months", "result": "~95", "unit": "%"}, {"measurement": "treated eyes having no glaucomatous optic nerve damage", "setting": "DBA/2J (D2) mice [4]; D2 mice, NAM 2000 mg/kg/d (NAM^Hi), 12 months of age", "result": 93, "unit": "%"}, {"measurement": "protective in glaucoma", "setting": "DBA/2J (D2) mice [4]; D2 mice, NAM alone (550 mg/kg/day)", "result": "about 70%"}, {"measurement": "decrease in risk factor of developing glaucoma", "setting": "DBA/2J (D2) mice [4]; D2 mice, high dose NAM 2,000 mg/kg/day", "result": 10, "unit": "fold"}, {"measurement": "drop in risk factor", "setting": "DBA/2J (D2) mice [4]; D2 mice, low dose NAM 550 mg/kg/day", "result": "~2", "unit": "fold"}, {"measurement": "nuclear diameter shrinkage (DAPI-labeled nuclei)", "setting": "[5]; axotomized D2 retinas in culture, 5 days post-axotomy, NAM 100 mM and 500 mM", "result": "most robust protection against nuclear shrinkage; also recorded: protects against cell shrinkage; also recorded: indistinguishable from uninjured, baseline controls"}, {"measurement": "ganglion cell layer cell death / cell density", "setting": "[5]; [10]", "result": "attractive dose-response effect"}, {"measurement": "protective effect in retina tissue culture", "setting": "[5]; [10]", "result": "robustly protected"}, {"measurement": "axon degeneration in RGCs after intravitreal injection", "setting": "RGCs", "result": "not protective against axon degeneration in RGCs; also recorded: did not show any difference from the control animals"}, {"measurement": "doses with an incidence of hepatotoxicity", "setting": "[6]; humans, attributed to impurities in older preparations", "result": "> 4", "unit": "grams NAM per day"}, {"measurement": "cases of jaundice reported", "setting": "[6]; survey of 6000 patients on high doses", "result": 3}, {"measurement": "axonal degeneration after axotomy", "setting": "dorsal root ganglion", "result": "did not work to diminish axonal degeneration"}, {"measurement": "PARP activation / expression", "setting": "PARP", "result": "decreased PARP activation; also recorded: prevents PARP activation"}, {"measurement": "DNA damage (γH2AX staining)", "setting": "γH2AX", "result": "limited levels of DNA damage; also recorded: prevents DNA damage"}, {"measurement": "PERG amplitude", "setting": "DBA/2J (D2) mice [7]; D2 Wld^S mice, NAM 550 mg/kg/day", "result": "additional recovery of PERG amplitude"}, {"measurement": "visual function, PERG amplitude", "setting": "DBA/2J (D2) mice [7]; NAM^Hi 2,000 mg/kg/day", "result": "protect"}, {"measurement": "visual function, PERG amplitude", "setting": "DBA/2J (D2) mice [7]; NAM^Lo 550 mg/kg/day or pyruvate 500 mg/kg/day", "result": "restored; also recorded: protect PERG even in aged mice"}, {"measurement": "neural degeneration", "setting": "[8]", "result": "reduces neural degeneration"}, {"measurement": "HIF-1α upregulation / transcriptional induction", "setting": "HIF-1α", "result": "limited; also recorded: lessens upregulation"}, {"measurement": "retinal NFL and IPL thinning (Nissl)", "setting": "D2 retinas [9]", "result": "prevented; also recorded: protects"}]}]}
